Measurements as given in PubChem BioAssay (NCI).
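Step 1: Grow cells in 96-well plates. Step 2: Expose to compound for 48 hours at 5 concentrations. Step 3: Interpolate endpoints linearly; if unreached, use highest concentration. GI50: concentration for 50% inhibition of growth. TGI is the concentration that stops growth completely.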

What was measured:
Assay in all cases: NCI tumour cell line growth inhibition, 48 h
NCI-H23 lung = tested on: NCI-H23 lung
SK-MEL-28 melanoma = tested on: SK-MEL-28 melanoma
DU-145 prostate = tested on: DU-145 prostate
CCRF-CEM leukemia = tested on: CCRF-CEM leukemia
SF-295 CNS = tested on: SF-295 CNS
TK-10 renal = tested on: TK-10 renal
SW-620 colon = tested on: SW-620 colon
BT-549 breast = tested on: BT-549 breast
MOLT-4 leukemia = tested on: MOLT-4 leukemia
UACC-257 melanoma = tested on: UACC-257 melanoma

Row | Compound | GI50 (NCI-H23 lung) | GI50 (SK-MEL-28 melanoma) | TGI (SK-MEL-28 melanoma) | GI50 (DU-145 prostate) | TGI (DU-145 prostate) | GI50 (CCRF-CEM leukemia) | TGI (CCRF-CEM leukemia) | GI50 (SF-295 CNS) | TGI (SF-295 CNS) | GI50 (TK-10 renal) | TGI (TK-10 renal) | GI50 (SW-620 colon) | TGI (SW-620 colon) | GI50 (BT-549 breast) | TGI (BT-549 breast) | GI50 (MOLT-4 leukemia) | TGI (MOLT-4 leukemia) | GI50 (UACC-257 melanoma) | TGI (UACC-257 melanoma) | TGI (NCI-H23 lung)
1 | CCCCCCCC(=O)SCC/C=C/[C@@H]1CC(=O)NCc2nc(co2)C2=N[C@@](C)(CS2)C(=O)N[C@@H](C(C)C)C(=O)O1 | 0.0411 µM | 0.0138 µM | 0.936 µM | 0.0123 µM | > 50 µM | 0.0296 µM | > 50 µM | 0.0264 µM | 0.282 µM | 0.0117 µM | 0.126 µM | 0.0423 µM | 1.9 µM | 0.127 µM | > 50 µM | 0.0241 µM | 25.7 µM | – | – | –
2 | COc1ccc2c(c1)[n+](=O)c(C(=O)/C=C/c1cc(OC)c(OC)c(OC)c1)c(C)n2[O-] | – | > 100 µM | > 100 µM | 10.7 µM | 25.4 µM | 28 µM | > 100 µM | 27.1 µM | > 100 µM | 18.9 µM | 36 µM | > 100 µM | > 100 µM | 12.6 µM | 28.9 µM | > 100 µM | > 100 µM | 34.1 µM | > 100 µM | –
3 | Cc1cc(C)c(S(=O)(=O)ONC(=O)OC(C)(C)C)c(C)c1 | – | – | > 100 µM | – | – | – | > 100 µM | – | > 100 µM | – | > 100 µM | – | > 100 µM | – | – | – | > 100 µM | – | > 100 µM | > 100 µM
4 | CC(=O)OCC1O[C@@H]([S-])C(OC(C)=O)[C@H](OC(C)=O)[C@@H]1OC(C)=O.[Au+].c1ccc(CN2[CH-]N(Cc3ccccc3)C(c3ccccc3)=C2c2ccccc2)cc1 | – | 1.64 µM | 3.21 µM | 1.89 µM | 3.54 µM | 1.99 µM | 5.51 µM | 2.34 µM | 6.31 µM | 1.86 µM | 3.42 µM | – | – | 1.86 µM | 3.54 µM | 3.06 µM | 9.47 µM | 1.84 µM | 4.05 µM | –
5 | NC(=O)/C=C/NC(=O)/C=N\O | – | – | > 100 µM | – | > 100 µM | – | > 100 µM | – | > 100 µM | – | – | – | > 100 µM | – | > 100 µM | – | > 100 µM | – | > 100 µM | –
6 | CCC[CH2][Sn]([CH2]CCC)([O]C(=O)C1CCC(=O)N1)[O]C(=O)C1CCC(=O)N1 (stereo not given) | 0.147 µM | 0.258 µM | 0.654 µM | – | – | – | – | 0.274 µM | 1.05 µM | 0.24 µM | 0.682 µM | 0.134 µM | 0.307 µM | – | – | 0.245 µM | 0.755 µM | 0.159 µM | 0.338 µM | 0.384 µM
7 | c1ccc(COCC2OC3c4ccccc4COC3C2OCc2ccccc2)cc1 (stereo not given) | – | – | > 100 µM | – | – | – | – | – | > 100 µM | – | > 100 µM | – | > 100 µM | – | – | – | > 100 µM | – | > 100 µM | > 100 µM
8 | COC(OC)[C@@H](C)[C@H](O)[C@](C)(O)C1OC(C)(C)OC(C(C)C=C(C)C)C1C (stereo not given in full) | – | – | > 100 µM | – | – | – | > 100 µM | – | > 100 µM | – | > 100 µM | – | > 100 µM | – | – | – | > 100 µM | – | > 100 µM | > 100 µM
9 | CC(=O)[O-].O=C([CH-]C(=O)c1ccccc1)c1ccccc1.O=C([CH-]C(=O)c1ccccc1)c1ccccc1.[Y+3] | 2.2 µM | 8.34 µM | 39 µM | – | – | – | – | 3.29 µM | 18.5 µM | 8.27 µM | 66.5 µM | 6.18 µM | 46 µM | – | – | 2.91 µM | 32.3 µM | 9.8 µM | 31.7 µM | 11.1 µM
10 | CCCCCC/C=C\CCCCCCCCCC1=CC(=O)C=C(OC)C1=O | – | – | 25.7 µM | – | 38 µM | – | – | – | 13.2 µM | – | 18.8 µM | – | 17.5 µM | – | 13.1 µM | – | > 100 µM | – | 9.11 µM | 12 µM
11 | CCOC(=O)c1cc2c(n1Cc1ccccc1)-c1oncc1CC2 | 6.37 µM | 52.4 µM | > 100 µM | 11.4 µM | 44 µM | 4.92 µM | > 100 µM | 2.89 µM | 11.1 µM | 14.4 µM | > 100 µM | 3.48 µM | > 100 µM | – | – | 4.73 µM | 44.6 µM | 10.7 µM | 59.7 µM | 67.1 µM
12 | COc1ccc(-c2csc(-c3cc(Cl)cc(Cl)c3Cl)n2)cc1 | – | > 100 µM | > 100 µM | 63.9 µM | > 100 µM | > 100 µM | > 100 µM | 57.8 µM | > 100 µM | > 100 µM | > 100 µM | 42.4 µM | > 100 µM | 92.2 µM | > 100 µM | 57 µM | > 100 µM | 62.7 µM | > 100 µM | –
13 | OC(c1ccccn1)C1CNc2ccccc21 (stereo not given) | – | – | > 100 µM | – | – | – | > 100 µM | – | > 100 µM | – | > 100 µM | – | > 100 µM | – | – | – | > 100 µM | – | > 100 µM | > 100 µM
14 | O=C1C(Cl)=C(Nc2cccc(O)c2)C(=O)N1c1ccccc1Cl | 32.2 µM | 58 µM | > 100 µM | 30.9 µM | > 100 µM | 1.48 µM | 19.6 µM | 40 µM | > 100 µM | – | – | 52.3 µM | > 100 µM | 21.8 µM | 75.4 µM | 15.8 µM | 38.1 µM | – | – | > 100 µM
15 | Cc1nc2n(c(=O)c1CCN1CCC(c3noc4cc(F)ccc34)CC1)CCCC2 | > 50 µM | > 50 µM | > 50 µM | > 50 µM | > 50 µM | > 50 µM | > 50 µM | > 50 µM | > 50 µM | > 50 µM | > 50 µM | > 50 µM | > 50 µM | > 50 µM | > 50 µM | > 50 µM | > 50 µM | – | – | > 50 µM
16 | Cc1ccc(C)c(NC(=O)CCc2nc(=S)[nH][nH]2)c1 | – | – | > 100 µM | – | – | – | > 100 µM | – | > 100 µM | – | > 100 µM | – | 33 µM | – | – | – | > 100 µM | – | > 100 µM | > 100 µM
